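GI50 is the concentration that inhibits growth by half. Definition used: TGI = concentration required for complete inhibition of growth.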
What was measured:
Assay in all cases: inhibition of tumour cell growth, NCI panel, 384-well format; in the data active = GI50 below about 0.43 µM; inactive = the rest
[1] = tested on: BT-549 breast
[2] = tested on: COLO 205 colon
[3] = tested on: EKVX NSCLC
[4] = tested on: M14 melanoma
[5] = tested on: MDA-MB-468 breast
[6] = tested on: NCI-H226 lung
[7] = tested on: NCI-H322M lung
[8] = tested on: NCI-H460 NSCLC
[9] = tested on: OVCAR-8 ovarian
[10] = tested on: SK-MEL-5 melanoma
[11] = tested on: SN12C renal
[12] = tested on: SNB-19 CNS
[13] = tested on: UACC-257 melanoma

C[C@@H](c1ccc2nccn2c1)n1nnc2ncc(-c3cnn(C)c3)nc21
inactive: GI50 [1] > 100 µM | GI50 [2] > 100 µM | GI50 [3] > 100 µM | GI50 [4] > 100 µM | GI50 [5] 22 µM | GI50 [6] > 100 µM | GI50 [7] > 100 µM | GI50 [8] > 100 µM | GI50 [9] > 100 µM | GI50 [10] > 92.7 µM | GI50 [11] > 63 µM | GI50 [12] > 100 µM | GI50 [13] > 100 µM
> 100 µM: TGI [1] | TGI [2] | TGI [3] | TGI [4] | TGI [5] | TGI [6] | TGI [7] | TGI [8] | TGI [9] | TGI [10] | TGI [11] | TGI [12] | TGI [13]
